Results from US11103525B2, “Idoxuridine and its analogs as neuroprotectans for the treatment of parkinsonism” (priority 2017, dated 2021).

Experiments:
GPR37-tGFP = GPR37-tGFP translocation assay; type: cell-based, mouse; details: for effect in GPR37-translocation assay (hit rating): tested at 2, 10 and 20 μM
Description: FIG. 2. Schematic representation of the rationale and the basic steps of GPR37-translocation assay. A. GPR37 is prone to misfolding and aggregation, which, in metabolically-active cells, are followed by degradation and results in low levels of functional receptor in the plasma membrane. The primary targets of the screening assay are compounds that can directly or indirectly facilitate maturation and trafficking of GPR37 to the plasma membrane. B. N2a cells stably expressing GPR37-tGFP are seeded in poly-D-Lysine coated 384 well plates at density 5000 cells/well. 24 h later cells are treated with compounds, including positive and negative controls, and incubated for 72 h. Then cells are fixed with 4% PFA and additionally stained with Hoechst 33342 (nuclei) and HCS CellMask™ red (cell body) to enable segmentation of the plasma membrane. Acquisition of fluorescence images is done using ImageXpress high content screening system (Molecular Devices). Quantification of GPR37-tGFP levels in the plasma membrane is done using CellProfiler software. FIG. 3. Schematic representation of Image analysis pipeline and final outcome data. Segmentation of the plasma membrane is performed in five main steps: 1) identification of nuclei (primary objects) using nuclear stain, 2) determination of cell borders using primary objects as seeds and growing these objects in respect of tGFP and HCS CellMask™ fluorescence intensity (secondary objects), 3) shrinking and expending secondary objects, 4) subtraction of shrunken cells from expended cells which results in membrane segmentation (tertiary objects), 5) tGFP fluorescence intensity is calculated within tertiary objects. Z′ factor is a quality measure of an assay which describes how well separated positive and negative controls are. Assays having Z′ factors above 0.5 are considered good assays. N2a cells stably expressing GPR37-tGFP were seeded in 384 BDFalcon BioCoat Poly-D-Lysine coated plates at a density of 5000 cells/well, and 50 μL incubation volume of maintenance medium. Cells were incubated at 37° C., 5% CO2 using humidity chamber. 24 h later, the cells were treated with 10 μL of compounds of desired concentration, including positive (2 mM dibutyryl-cAMP+0.5 mM 4-phenylbutyrate) and negative controls (0.1% DMSO), and incubated for 72 h. Cells were fixed with 4% PFA by adding 20 μL of 16% PFA directly to cell medium, incubating for 20 min and washing with PBS-Tween20 (0.05%). Directly after fixation cells were stained for nuclei with Hoechst 33342 (0.01 mg/mL) and for cell bodies with HCS CellMask™ Red stain (Thermo Fisher Scientific Inc.) (0.001 mg/mL) by incubating with the dyes for 30 min in PBS-Tween20 (0.05%) followed by washing with PBS. All the additional steps, including cell seeding were performed using Multidrop Combi dispenser (Thermo Scientific) and washing steps were done by means of HydroSpeed™ plate washer (Tecan). The images were captured using ImageXpress Micro XLS Widefield High-Content Analysis System (Molecular Devices, LLC) in 3 fluorescent channels (ImageXpress filters are listed, followed by excitation/emission in nm): DAPI (387/447), FITC (482/536) and TexasRed (562/624). Binning 2 was applied during the acquisition and digital confocal option was used for FITC and TexasRed filters. Typically, 5 images were taken per well at magnification 20× and stored as 16 bit, gray scale tif files along with metadata in Oracle database, for further analysis. Quantification of GPR37-tGFP levels in the plasma membrane was done using CellProfiler™ software. CellProfiler™ is an open-source cell image analysis software available at www.cellprofiler.org. An image analysis pipeline used for membrane segmentation consisted of 5 main steps (FIG. 3): 1) segmentation of nuclei (primary objects); 2) segmentation of cell bodies (secondary objects); 3) shrinking and expending cell bodies; 4) subtraction of shrank cells from expanded cells (tertiary objects—membranes); 5) calculating tGFP fluorescence in the membranes. […]

[1] = compared with idoxuridine; cited from earlier work
hepatic aldehyde oxidase = target: T1, hepatic aldehyde oxidase (Homo sapiens, UniProt Q06278); details: cited from earlier work
T1 sequence (Q06278 1-1338): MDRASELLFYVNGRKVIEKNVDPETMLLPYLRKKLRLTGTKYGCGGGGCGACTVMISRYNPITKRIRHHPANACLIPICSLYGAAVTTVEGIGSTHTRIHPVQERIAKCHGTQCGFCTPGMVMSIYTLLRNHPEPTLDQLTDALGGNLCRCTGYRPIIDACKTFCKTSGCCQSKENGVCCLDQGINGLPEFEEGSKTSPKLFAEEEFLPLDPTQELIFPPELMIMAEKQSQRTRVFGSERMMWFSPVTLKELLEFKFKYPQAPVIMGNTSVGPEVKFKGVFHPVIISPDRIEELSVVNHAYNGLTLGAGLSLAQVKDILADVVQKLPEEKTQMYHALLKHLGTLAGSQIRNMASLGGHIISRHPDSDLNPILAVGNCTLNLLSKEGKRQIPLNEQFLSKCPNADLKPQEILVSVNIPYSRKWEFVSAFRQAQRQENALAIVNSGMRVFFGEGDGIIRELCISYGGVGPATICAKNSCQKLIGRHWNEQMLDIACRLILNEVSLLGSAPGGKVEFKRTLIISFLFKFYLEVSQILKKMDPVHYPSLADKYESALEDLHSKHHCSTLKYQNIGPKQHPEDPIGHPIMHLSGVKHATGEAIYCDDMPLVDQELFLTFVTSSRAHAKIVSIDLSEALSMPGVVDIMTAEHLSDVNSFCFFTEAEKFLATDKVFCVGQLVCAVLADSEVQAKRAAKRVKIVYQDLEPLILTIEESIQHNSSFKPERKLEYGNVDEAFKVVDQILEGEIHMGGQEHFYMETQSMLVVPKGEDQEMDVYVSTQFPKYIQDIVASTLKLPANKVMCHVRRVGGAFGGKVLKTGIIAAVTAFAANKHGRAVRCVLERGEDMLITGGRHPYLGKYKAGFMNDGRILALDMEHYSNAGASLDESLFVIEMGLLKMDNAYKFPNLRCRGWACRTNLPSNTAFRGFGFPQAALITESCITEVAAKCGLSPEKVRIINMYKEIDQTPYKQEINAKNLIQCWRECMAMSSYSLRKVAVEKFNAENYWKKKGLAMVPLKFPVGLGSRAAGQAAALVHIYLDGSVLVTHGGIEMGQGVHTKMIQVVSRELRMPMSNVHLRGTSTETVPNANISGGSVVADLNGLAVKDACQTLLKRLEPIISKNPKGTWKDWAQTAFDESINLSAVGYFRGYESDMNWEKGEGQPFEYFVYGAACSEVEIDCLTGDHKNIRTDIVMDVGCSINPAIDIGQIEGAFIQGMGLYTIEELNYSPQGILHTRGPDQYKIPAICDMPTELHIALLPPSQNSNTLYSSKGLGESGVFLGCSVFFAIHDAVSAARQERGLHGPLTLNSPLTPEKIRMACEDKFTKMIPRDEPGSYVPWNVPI

With O=c1[nH]c(=O)n([C@H]2C[C@H](O)[C@@H](CO)O2)cc1O [Compound 2, 5-hydroxy-1-((2R,4S,5R)-4-hydroxy-5-(hydroxymethyl)tetrahydrofuran-2-yl)pyrimidine-2,4(1H,3H)-dione] the “effect in GPR37-translocation assay (hit rating)” value (from here on “effect”) (GPR37-tGFP) was “slight positive effect”.
For O=c1ncc(I)cn1[C@H]1C[C@H](O)[C@@H](CO)O1 [ropidoxuridine, 1-((2R,4S,5R)-4-hydroxy-5-(hydroxymethyl)tetrahydrofuran-2-yl)-5-iodopyrimidin-2(1H)-one], the stability in vivo [1] is listed as “more stable”, the toxicity in vivo [1] is listed as “less toxic” and the “metabolic conversion to idoxuridine” value (hepatic aldehyde oxidase) is listed as “efficiently converted to idoxuridine”.
For CCCC(=O)Nc1ncnc2c1ncn2[C@@H]1O[C@@H]2COP(=O)(O)O[C@H]2[C@H]1OC(=O)CCC [dibutyryl-cAMP], the “increase of GPR37-tGFP in the plasma membrane” value (GPR37-tGFP; without starvation, used as positive control) was “remarkable increase”.
With Nc1cccc(-c2cn([C@H]3C[C@H](O)[C@@H](CO)O3)c(=O)[nH]c2=O)c1 [Compound 17, 5-(3-aminophenyl)-1-((2R,4S,5R)-4-hydroxy-5-(hydroxy-methyl)tetrahydrofuran-2-yl)pyrimidine-2,4(1H,3H)-dione] the “effect” value (GPR37-tGFP) was “strong hit”.
With C#Cc1cn([C@H]2C[C@H](O)[C@@H](CO)O2)c(=O)[nH]c1=O [Compound 4, 5-ethynyl-1-((2R,4S,5R)-4-hydroxy-5-(hydroxymethyl)-tetrahydrofuran-2-yl)pyrimidine-2,4(1H,3H)-dione] the “effect” value (GPR37-tGFP) was “slight positive effect”.
